According to ChEMBL document CHEMBL1201862, “PubChem BioAssay data set” (2004):
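Five concentrations, 48 hours, 96-well plates. GI50 = concentration required for 50% inhibition of growth.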 The source made the active and inactive calls. No stated cut-off is given here; in the data, active = GI50 up to about 1.1 µM and inactive = higher.

Tests used:
Test in all cases: growth of human tumour cells (NCI), 48 h
786-0 = system: 786-0
MCF7 = system: MCF7
OVCAR-8 = system: OVCAR-8
COLO 205 = system: COLO 205
A549 = system: A549
SNB-75 = system: SNB-75
NCI-H226 = system: NCI-H226
UACC-257 = system: UACC-257
HL-60 = system: HL-60
U-251 = system: U-251
ACHN = system: ACHN
HCT-15 = system: HCT-15
TK-10 = system: TK-10
OVCAR-5 = system: OVCAR-5
T47D = system: T47D
HOP-62 = system: HOP-62
NCI-H23 = system: NCI-H23
HCC 2998 = system: HCC 2998
SR = system: SR
MDA-N = system: MDA-N

Structure (SMILES) | GI50 (786-0) | GI50 (MCF7) | GI50 (OVCAR-8) | GI50 (COLO 205) | GI50 (A549) | GI50 (SNB-75) | GI50 (NCI-H226) | GI50 (UACC-257) | GI50 (HL-60) | GI50 (U-251) | GI50 (ACHN) | GI50 (HCT-15) | GI50 (TK-10) | GI50 (OVCAR-5) | GI50 (T47D) | GI50 (HOP-62) | GI50 (NCI-H23) | GI50 (HCC 2998) | GI50 (SR) | GI50 (MDA-N)
C#CCN(CC#C)C(=O)C(=O)c1c[nH]c2ccc(OC)cc12 | 16.6 µM (inactive) | 18.6 µM (inactive) | 22 µM (inactive) | 21.6 µM (inactive) | 25.7 µM (inactive) | 20.2 µM (inactive) | 18.2 µM (inactive) | 17.5 µM (inactive) | 3.99 µM (inactive) | 14.4 µM (inactive) | 21.3 µM (inactive) | 15.5 µM | 14.5 µM (inactive) | 17.4 µM (inactive) | 24.2 µM (inactive) | 16.7 µM (inactive) | 22.4 µM (inactive) | 16.9 µM (inactive) | 11.1 µM (inactive) | –
CSCSSC | > 100 µM (inactive) | – | > 100 µM (inactive) | > 100 µM (inactive) | > 100 µM (inactive) | 52.1 µM (inactive) | > 100 µM (inactive) | > 100 µM (inactive) | 2.54 µM (inactive) | – | > 100 µM (inactive) | – | > 100 µM (inactive) | > 100 µM (inactive) | > 100 µM (inactive) | > 100 µM (inactive) | > 83 µM (inactive) | > 100 µM (inactive) | 30.7 µM (inactive) | > 93.3 µM (inactive)
ClCCN(CCCl)c1ccc(/C=N/Nc2ccnc3ccccc23)cc1 | 1.78 µM (inactive) | 3.03 µM (inactive) | 1.41 µM (inactive) | 1.86 µM (inactive) | 1.63 µM (inactive) | 2.17 µM (inactive) | 1.89 µM (inactive) | 1.84 µM (inactive) | – | 1.48 µM (inactive) | 1.84 µM (inactive) | 1.35 µM | 1.52 µM (inactive) | 1.5 µM (inactive) | 1.76 µM (inactive) | 2.07 µM (inactive) | 2.01 µM (inactive) | 3.26 µM (inactive) | – | –
COc1ccc2c3c([nH]c2c1CC=C(C)C)C(=O)C=C(C)C3=O | > 25 µM (inactive) | – | > 25 µM (inactive) | > 25 µM (inactive) | > 25 µM (inactive) | 14.4 µM (inactive) | > 25 µM (inactive) | > 25 µM (inactive) | > 25 µM (inactive) | > 25 µM (inactive) | > 25 µM (inactive) | > 25 µM | > 25 µM (inactive) | > 25 µM (inactive) | – | > 25 µM (inactive) | > 25 µM (inactive) | > 25 µM (inactive) | 24.5 µM (inactive) | –
CCOP(=O)(C/C(=N/NC(C)(C)C)C(=O)Nc1nc2ccc(C)cc2s1)OCC | > 100 µM (inactive) | – | > 100 µM (inactive) | > 100 µM (inactive) | > 100 µM (inactive) | > 100 µM (inactive) | > 100 µM (inactive) | > 100 µM (inactive) | > 100 µM (inactive) | > 100 µM (inactive) | > 100 µM (inactive) | > 100 µM | > 100 µM (inactive) | > 100 µM (inactive) | – | > 100 µM (inactive) | > 100 µM (inactive) | > 100 µM (inactive) | > 100 µM (inactive) | –
O=c1c(Cl)c(Cl)cnn1CCCl | 12.2 µM (inactive) | – | 3.44 µM (inactive) | 2.24 µM (inactive) | 17.9 µM (inactive) | 11.1 µM (inactive) | 23.2 µM (inactive) | 4.46 µM (inactive) | 2.19 µM (inactive) | 5.9 µM (inactive) | 0.904 µM (active) | 2.64 µM | 15.9 µM (inactive) | 16.5 µM (inactive) | 3.34 µM (inactive) | 17.3 µM (inactive) | 2.52 µM (inactive) | 3.34 µM (inactive) | – | –
CC1(C)CC2(C)CC1CC2(O)c1ccccc1 (stereo not given) | > 100 µM (inactive) | – | > 100 µM (inactive) | > 100 µM (inactive) | > 100 µM (inactive) | > 100 µM (inactive) | > 100 µM (inactive) | > 100 µM (inactive) | > 100 µM (inactive) | > 100 µM (inactive) | > 100 µM (inactive) | – | > 100 µM (inactive) | > 100 µM (inactive) | > 100 µM (inactive) | > 100 µM (inactive) | > 100 µM (inactive) | – | > 100 µM (inactive) | > 100 µM (inactive)
CC(=O)/C(=N\O)C(=O)NCCc1ccccc1 | 68.2 µM (inactive) | – | > 100 µM (inactive) | 45.9 µM (inactive) | 98.6 µM (inactive) | > 100 µM (inactive) | > 100 µM (inactive) | 57.7 µM (inactive) | 73.8 µM (inactive) | 63.5 µM (inactive) | > 100 µM (inactive) | 41.1 µM | 45.1 µM (inactive) | > 100 µM (inactive) | – | > 100 µM (inactive) | > 100 µM (inactive) | 66.5 µM (inactive) | > 100 µM (inactive) | –
N[C@@H]1CCN(c2c(F)cc3c(=O)c(C(=O)O)cn4c3c2Oc2c-4ccc3c2ccc2ccccc23)C1 | 0.412 µM (active) | 0.667 µM (active) | 1.38 µM (inactive) | 2.99 µM (inactive) | 2.39 µM (inactive) | – | 19.9 µM (inactive) | 5.42 µM (inactive) | 5.16 µM (inactive) | 0.571 µM (active) | 0.305 µM (active) | 1.96 µM | 2.38 µM (inactive) | 2.86 µM (inactive) | – | 1.38 µM (inactive) | 3.1 µM (inactive) | 0.494 µM (active) | 0.225 µM (active) | 1.55 µM (inactive)
Cc1ccccc1/N=N/c1cc(C)c(/N=N/c2c(O)ccc3ccccc23)cc1C | > 100 µM (inactive) | – | > 100 µM (inactive) | > 100 µM (inactive) | > 100 µM (inactive) | 73.1 µM (inactive) | > 100 µM (inactive) | > 100 µM (inactive) | – | 99.3 µM (inactive) | > 100 µM (inactive) | > 100 µM | > 100 µM (inactive) | > 100 µM (inactive) | > 100 µM (inactive) | > 100 µM (inactive) | > 100 µM (inactive) | – | – | > 100 µM (inactive)
CC(=O)OCC1OC(Sc2nc(-c3ccc(C)cc3)c(C#N)c(=O)n2C2OC(COC(C)=O)C(OC(C)=O)C(OC(C)=O)C2OC(C)=O)C(OC(C)=O)C(OC(C)=O)C1OC(C)=O (stereo not given) | > 100 µM (inactive) | > 100 µM (inactive) | > 100 µM (inactive) | – | > 100 µM (inactive) | > 100 µM (inactive) | > 100 µM (inactive) | > 100 µM (inactive) | – | > 100 µM (inactive) | > 100 µM (inactive) | > 100 µM | > 100 µM (inactive) | > 100 µM (inactive) | > 100 µM (inactive) | > 100 µM (inactive) | > 100 µM (inactive) | – | > 100 µM (inactive) | –
CC(C)=Cc1cc(CCC/C(C)=C/Cc2c(O)cc(C)c(C(=O)O)c2O)co1 | > 100 µM (inactive) | > 100 µM (inactive) | 84.9 µM (inactive) | > 100 µM (inactive) | > 100 µM (inactive) | > 100 µM (inactive) | – | > 100 µM (inactive) | – | > 100 µM (inactive) | > 100 µM (inactive) | > 100 µM | > 100 µM (inactive) | > 100 µM (inactive) | 67.1 µM (inactive) | > 100 µM (inactive) | > 100 µM (inactive) | > 100 µM (inactive) | – | –
O=C(CC(C(=O)c1ccsc1)c1ccsc1)c1ccsc1 (stereo not given) | > 100 µM (inactive) | 70.6 µM (inactive) | > 100 µM (inactive) | > 100 µM (inactive) | 68.5 µM (inactive) | 56.5 µM (inactive) | > 100 µM (inactive) | 58.2 µM (inactive) | 35.2 µM (inactive) | > 100 µM (inactive) | > 100 µM (inactive) | 61.4 µM | > 100 µM (inactive) | – | 25.5 µM (inactive) | > 100 µM (inactive) | 46.1 µM (inactive) | > 100 µM (inactive) | 36.5 µM (inactive) | –
CCCCCN(CCCCC)CC(C)(C)C(O)c1ccc(OC)c2ccccc12 (stereo not given) | 12.4 µM (inactive) | 5.13 µM (inactive) | 10.5 µM (inactive) | 6.85 µM (inactive) | 9.2 µM (inactive) | 20.5 µM (inactive) | 16.9 µM (inactive) | 13.1 µM (inactive) | 3.77 µM (inactive) | 9.46 µM (inactive) | 11.7 µM (inactive) | 5.81 µM | 7.98 µM (inactive) | 11.9 µM (inactive) | 4.56 µM (inactive) | 22.9 µM (inactive) | 11.2 µM (inactive) | 3.52 µM (inactive) | 2.07 µM (inactive) | –
O=C(NO)C(=O)Nc1cc(Cl)ccc1Cl | > 100 µM (inactive) | – | > 100 µM (inactive) | > 100 µM (inactive) | > 100 µM (inactive) | > 100 µM (inactive) | > 100 µM (inactive) | > 100 µM (inactive) | > 100 µM (inactive) | > 100 µM (inactive) | > 100 µM (inactive) | > 100 µM | > 100 µM (inactive) | > 100 µM (inactive) | – | > 100 µM (inactive) | > 100 µM (inactive) | 78 µM (inactive) | 93.5 µM (inactive) | –
COc1cc2ccnc(-c3n[nH]c4cc(OC)c(OC)cc34)c2cc1OC | > 100 µM (inactive) | – | > 100 µM (inactive) | > 100 µM (inactive) | > 100 µM (inactive) | > 100 µM (inactive) | > 100 µM (inactive) | > 100 µM (inactive) | > 100 µM (inactive) | > 100 µM (inactive) | > 100 µM (inactive) | > 100 µM | > 100 µM (inactive) | > 100 µM (inactive) | – | > 100 µM (inactive) | > 100 µM (inactive) | > 100 µM (inactive) | > 100 µM (inactive) | –
